Source: the supplement of paper PMC10307832

How the values were obtained:
Assay in all cases: relative viability (nuclei count vs DMSO), 5 days (fraction); higher = more cells survive
[1] = compound: CCN(CCO)CCCC(C)Nc1ccnc2cc(Cl)ccc12 [Hydroxychloroquine] + COc1cccc2cc(-c3nc([C@H]4CC[C@H](C(=O)O)CC4)n4ncnc(N)c34)[nH]c12 [OSI-027] (partner 0.5 µM)
In short: (§1)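 Dosing by pin tool came one day after lung cancer cell lines were seeded in 1536-well plates, using either one drug or a fixed anchor-drug dose plus five library-drug doses (not always all listed) in √10 steps. After 5 days, nuclei were counted on 4× images. Relative viability is treated-well nuclei count divided by vehicle-well nuclei count, and values are medians of duplicate plates.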

[2] = compound: CCN(CCO)CCCC(C)Nc1ccnc2cc(Cl)ccc12 [Hydroxychloroquine] + Cc1cc(Nc2cc(N3CCN(C)CC3)nc(Sc3ccc(NC(=O)C4CC4)cc3)n2)n[nH]1 [Tozasertib] (partner 0.1 µM)
In short: as §1

[3] = compound: CCN(CCO)CCCC(C)Nc1ccnc2cc(Cl)ccc12 [Hydroxychloroquine] + C[C@]1(O)C[C@@H](c2nc(-c3ccc4ccc(-c5ccccc5)nc4c3)c3c(N)nccn32)C1 [Linsitinib] (partner 1 µM)
In short: as §1

[4] = compound: CCN(CCO)CCCC(C)Nc1ccnc2cc(Cl)ccc12 [Hydroxychloroquine] + C[C@@H](Oc1cc(-c2cnn(C3CCNCC3)c2)cnc1N)c1c(Cl)ccc(F)c1Cl [Crizotinib] (partner 1 µM)
In short: as §1

Cell Line | relative viability ([1]; first compound 0.5 µM) | relative viability ([1]; first compound 1.581 µM) | relative viability ([1]; first compound 5 µM) | relative viability ([1]; first compound 15.81 µM) | relative viability ([1]; first compound 50 µM) | relative viability ([2]; first compound 0.5 µM) | relative viability ([2]; first compound 1.581 µM) | relative viability ([2]; first compound 5 µM) | relative viability ([2]; first compound 15.81 µM) | relative viability ([2]; first compound 50 µM) | relative viability ([3]; first compound 0.5 µM) | relative viability ([3]; first compound 1.581 µM) | relative viability ([3]; first compound 5 µM) | relative viability ([3]; first compound 15.81 µM) | relative viability ([3]; first compound 50 µM) | relative viability ([4]; first compound 0.5 µM) | relative viability ([4]; first compound 1.581 µM) | relative viability ([4]; first compound 5 µM) | relative viability ([4]; first compound 15.81 µM) | relative viability ([4]; first compound 50 µM)
EPLC-272H | 0.249 | 0.232 | 0.276 | 0.252 | 0.314 | 0.262 | 0.152 | 0.26 | 0.257 | 0.287 | 1.13 | 1 | 1.2 | 1.12 | 1.25 | 0.8 | 0.983 | 0.92 | 0.86 | 1.23
NCI-H2023 | 0.468 | 0.336 | 0.402 | 0.338 | 0.442 | 0.35 | 0.339 | 0.344 | 0.36 | 0.36 | 0.618 | 0.65 | 0.697 | 0.643 | 0.728 | 0.652 | 0.565 | 0.619 | 0.614 | 0.737
BEN | 0.319 | 0.284 | 0.268 | 0.373 | 0.325 | 0.606 | 0.465 | 0.551 | 0.501 | 0.622 | 0.87 | 0.929 | 0.872 | 0.973 | 1.15 | 0.848 | 0.728 | 0.863 | 0.947 | 1.01
COR-L 105 | 0.643 | 0.598 | 0.708 | 0.739 | 0.668 | 0.353 | 0.349 | 0.376 | 0.376 | 0.333 | 1.08 | 1 | 0.905 | 0.851 | 0.814 | 0.871 | 0.838 | 0.901 | 0.835 | 0.79
ABC-1 | 0.469 | 0.501 | 0.467 | 0.417 | 0.631 | 0.162 | 0.136 | 0.166 | 0.172 | 0.165 | 1 | 0.698 | 0.959 | 0.759 | 0.879 | 1.13 | 0.981 | 1.46 | 1.2 | 1.09
HCC-15 | 0.754 | 0.672 | 0.634 | 0.656 | 0.724 | 0.392 | 0.399 | 0.412 | 0.321 | 0.441 | 0.815 | 0.861 | 0.879 | 0.912 | 0.898 | 0.884 | 0.818 | 0.867 | 1.01 | 0.94
RERF-LC-KJ | 0.587 | 0.5 | 0.537 | 0.631 | 0.609 | 0.452 | 0.523 | 0.541 | 0.487 | 0.478 | 0.896 | 0.885 | 0.911 | 0.854 | 0.822 | 0.942 | 0.785 | 0.786 | 0.848 | 0.81
NCI-H1993 | 0.546 | 0.563 | 0.558 | 0.555 | 0.541 | 0.514 | 0.648 | 0.571 | 0.569 | 0.592 | 0.707 | 0.719 | 0.683 | 0.718 | 0.735 | 0.867 | 0.948 | 0.803 | 0.888 | 0.949
NCI-H358 | 0.666 | 0.616 | 0.783 | 0.83 | 0.991 | 0.097 | 0.096 | 0.115 | 0.108 | 0.0849 | 0.795 | 0.704 | 0.712 | 0.69 | 0.743 | 0.515 | 0.579 | 0.587 | 0.516 | 0.591
NCI-H1915 | 0.648 | 0.53 | 0.599 | 0.583 | 0.685 | 0.425 | 0.411 | 0.428 | 0.464 | 0.439 | 1.11 | 1.13 | 1.11 | 1.09 | 1.11 | 0.953 | 0.935 | 0.937 | 0.982 | 1.01
SK-LU-1 | 0.394 | 0.348 | 0.337 | 0.334 | 0.34 | 0.367 | 0.339 | 0.325 | 0.342 | 0.323 | 1.11 | 1.09 | 1.04 | 1.19 | 0.982 | 0.948 | 0.895 | 0.911 | 0.928 | 0.938
LOU-NH91 | 0.667 | 0.616 | 0.758 | 0.701 | 0.736 | 0.651 | 0.6 | 0.687 | 0.692 | 0.723 | 0.907 | 0.811 | 0.981 | 0.937 | 0.946 | 0.726 | 0.727 | 0.742 | 0.739 | 0.741
NCI-H2347 | 0.528 | 0.356 | 0.387 | 0.322 | 0.336 | 0.553 | 0.455 | 0.664 | 0.402 | 0.469 | 1.05 | 0.84 | 0.932 | 0.994 | 0.895 | 0.887 | 0.588 | 0.544 | 0.728 | 0.85
NCI-H2126 | 0.625 | 0.631 | 0.763 | 0.606 | 0.702 | 0.821 | 0.77 | 0.836 | 0.887 | 0.949 | 0.694 | 0.634 | 0.681 | 0.649 | 0.747 | 1.12 | 1.06 | 1.11 | 0.984 | 1.13
HCC-827 | 0.802 | 0.572 | 0.821 | 1.03 | 0.763 | 0.442 | 0.442 | 0.513 | 0.467 | 0.456 | 1.01 | 0.927 | 0.922 | 0.956 | 0.977 | 0.86 | 0.916 | 1.01 | 0.976 | 0.871
NCI-H3122 | 1.05 | 0.962 | 1.12 | 1.2 | 1.18 | 0.434 | 0.368 | 0.397 | 0.456 | 0.505 | 1.05 | 1 | 0.953 | 1.05 | 1.07 | 0.283 | 0.275 | 0.275 | 0.252 | 0.279
HOP-62 | 0.877 | 0.892 | 0.843 | 0.825 | 0.767 | 0.365 | 0.316 | 0.38 | 0.43 | 0.413 | 0.95 | 0.873 | 1.15 | 0.868 | 0.987 | 0.954 | 0.836 | 0.843 | 1.05 | 0.744
HCC-44 | 0.504 | 0.418 | 0.43 | 0.511 | 0.547 | 1.18 | 0.937 | 0.895 | 0.934 | 1.3 | 0.634 | 0.682 | 0.723 | 0.748 | 0.774 | 0.821 | 0.804 | 0.87 | 0.829 | 1.01
